Source: PubChem BioAssay AID330 (DTP/NCI, 2004)
Toxic doses and inconclusive results are not listed.

Tested on: P388 leukemia ip, CD2F1 mice, survival T/C
Assay: NCI In Vivo Anticancer Drug Screen. Data for tumor model P388 Leukemia (intraperitoneal) in CD2F1 (CDF1) mice
Settings: endpoint: median survival time, higher = longer survival
Outline: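 Mice carrying the transplanted tumor received test compound or vehicle. Survival was recorded in each group, and the value is the treated-group measurement divided by that of the vehicle-treated control group.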

[1] = dose: 50.0 mg/kg/injection, schedule: Q01DX009 (ip), vehicle: saline
[2] = dose: 50.0 mg/kg/injection, schedule: Q01DX005 (ip), vehicle: Klucel (hydroxypropylcellulose) (HPC)
[3] = dose: 100.0 mg/kg/injection, schedule: Q01DX005 (ip), vehicle: Klucel (hydroxypropylcellulose) (HPC)
[4] = dose: 200.0 mg/kg/injection, schedule: Q01DX005 (ip), vehicle: Klucel (hydroxypropylcellulose) (HPC)
[5] = dose: 50.0 mg/kg/injection, schedule: Q01DX005 (ip), vehicle: saline with Tween-80
[6] = dose: 100.0 mg/kg/injection, schedule: Q01DX005 (ip), vehicle: saline with Tween-80
[7] = dose: 200.0 mg/kg/injection, schedule: Q01DX005 (ip), vehicle: saline with Tween-80
[8] = dose: 50.0 mg/kg/injection, schedule: Q04DX003 (ip), vehicle: saline with Tween-80
[9] = dose: 25.0 mg/kg/injection, schedule: Q01DX009 (ip), vehicle: water

For COC(=O)[C@@H]1c2cc3c(c(O)c2[C@@H](OC)C[C@@]1(C)O)C(=O)c1c(O)cc2c(c1C3=O)OC1O[C@@]2(C)[C@H](O)[C@@H](N(C)C)[C@@H]1O, which T/C (dose: 6.25 mg/kg/injection, schedule: Q01DX010 (ip), vehicle: saline) is on record?
The T/C was 110 % of control.

What about the T/C (dose: 12.5 mg/kg/injection, schedule: Q01DX009 (ip), vehicle: other) of the same molecule?
Its T/C is 171 % of control.

And the T/C (dose: 12.5 mg/kg/injection, schedule: Q01DX009 (ip), vehicle: saline)?
The T/C was 156 % of control.

And the T/C (dose: 12.5 mg/kg/injection, schedule: Q01DX010 (ip), vehicle: saline)?
Its T/C is 110 % of control.

What about the T/C (dose: 25.0 mg/kg/injection, schedule: Q01DX009 (ip), vehicle: other) of the same molecule?
Its T/C is 176 % of control.

And the T/C (dose: 25.0 mg/kg/injection, schedule: Q01DX009 (ip), vehicle: saline)?
Its T/C is 159 % of control.

What about the T/C (dose: 25.0 mg/kg/injection, schedule: Q01DX010 (ip), vehicle: saline) of the same molecule?
The T/C was 120 % of control.

And the T/C (dose: 50.0 mg/kg/injection, schedule: Q01DX009 (ip), vehicle: other)?
Its T/C is 171 % of control.

What about the T/C [1] of the same molecule?
Its T/C is 98 % of control.

What about the T/C (dose: 50.0 mg/kg/injection, schedule: Q01DX010 (ip), vehicle: saline) of the same molecule?
Its T/C is 110 % of control.

And the T/C (dose: 50.0 mg/kg/injection, schedule: Q04DX003 (ip), vehicle: other)?
Its T/C is 153 % of control.

What about the T/C (dose: 50.0 mg/kg/injection, schedule: Q04DX003 (ip), vehicle: saline) of the same molecule?
Its T/C is 150 % of control.

What about the T/C (dose: 100.0 mg/kg/injection, schedule: Q04DX003 (ip), vehicle: other) of the same molecule?
The T/C was 158 % of control.

What about the T/C (dose: 100.0 mg/kg/injection, schedule: Q04DX003 (ip), vehicle: saline) of the same molecule?
The T/C was 150 % of control.

What does the source list for CC#CC#CC#C/C=C\CCC(=O)CC?
T/C (dose: 12.5 mg/kg/injection, schedule: Q01DX009 (ip), vehicle: Klucel (hydroxypropylcellulose) (HPC)): 95 % of control; T/C (dose: 25.0 mg/kg/injection, schedule: Q01DX009 (ip), vehicle: Klucel (hydroxypropylcellulose) (HPC)): 95 % of control; T/C (dose: 50.0 mg/kg/injection, schedule: Q01DX009 (ip), vehicle: Klucel (hydroxypropylcellulose) (HPC)): 95 % of control; T/C (dose: 100.0 mg/kg/injection, schedule: Q01DX009 (ip), vehicle: Klucel (hydroxypropylcellulose) (HPC)): 100 % of control

For CC1(C)CC2(CC(C)(C)NC(=O)N2)NC(=O)N1, which T/C [2] is on record?
The T/C was 105 % of control.

And the T/C [3]?
Its T/C is 92 % of control.

What about the T/C [4] of the same molecule?
The T/C was 100 % of control.

With Cc1cc(C)nc(NS(=O)(=O)c2ccc(Nc3c4ccccc4nc4c([N+](=O)[O-])cccc34)cc2)n1 as the molecule, how does the T/C (dose: 3.75 mg/kg/injection, schedule: Q01DX005 (ip), vehicle: saline with Tween-80) read?
The T/C was 100 % of control.

What about the T/C (dose: 7.5 mg/kg/injection, schedule: Q01DX005 (ip), vehicle: saline with Tween-80) of the same molecule?
The T/C was 100 % of control.

And the T/C (dose: 15.0 mg/kg/injection, schedule: Q01DX005 (ip), vehicle: saline with Tween-80)?
Its T/C is 97 % of control.

For OC1c2ccccc2-c2ccc(N(Cc3ccc(Br)cc3)Cc3ccc(Br)cc3)cc21 (stereo unspecified), which T/C [5] is on record?
Its T/C is 100 % of control.

What about the T/C [6] of the same molecule?
Its T/C is 91 % of control.

And the T/C [7]?
Its T/C is 92 % of control.

Which T/C (dose: 6.25 mg/kg/injection, schedule: Q04DX003 (ip), vehicle: saline with Tween-80) does the source give for CCOC(=O)/C=C(\C)NC1CC(OC2CC(O)(C(=O)CO)Cc3c(O)c4c(c(O)c32)C(=O)c2c(OC)cccc2C4=O)OC(C)C1O (stereo unspecified) here?
The T/C was 119 % of control.

What about the T/C (dose: 12.5 mg/kg/injection, schedule: Q04DX003 (ip), vehicle: saline with Tween-80) of the same molecule?
Its T/C is 113 % of control.

And the T/C [8]?
The T/C was 172 % of control.

O=[N+]([O-])c1ccc(Br)cc1 was tested. Which T/C [1] did it give?
Its T/C is 106 % of control.

What about the T/C (dose: 100.0 mg/kg/injection, schedule: Q01DX009 (ip), vehicle: saline) of the same molecule?
Its T/C is 108 % of control.

And the T/C (dose: 200.0 mg/kg/injection, schedule: Q01DX009 (ip), vehicle: saline)?
Its T/C is 101 % of control.

How did the T/C [8] turn out when CC1(c2ccccc2)Nc2ccccc2C1=Nc1ccccc1 (stereo unspecified) was run?
Its T/C is 99 % of control.

What about the T/C (dose: 100.0 mg/kg/injection, schedule: Q04DX003 (ip), vehicle: saline with Tween-80) of the same molecule?
Its T/C is 96 % of control.

And the T/C (dose: 200.0 mg/kg/injection, schedule: Q04DX003 (ip), vehicle: saline with Tween-80)?
The T/C was 100 % of control.

COc1cccc(/C=C/C(=O)O)c1OC was tested. Which T/C [9] did it give?
The T/C was 98 % of control.

What about the T/C (dose: 50.0 mg/kg/injection, schedule: Q01DX009 (ip), vehicle: water) of the same molecule?
The T/C was 91 % of control.

And the T/C (dose: 100.0 mg/kg/injection, schedule: Q01DX009 (ip), vehicle: water)?
Its T/C is 94 % of control.

And the T/C (dose: 200.0 mg/kg/injection, schedule: Q01DX009 (ip), vehicle: water)?
Its T/C is 100 % of control.

What about the T/C (dose: 400.0 mg/kg/injection, schedule: Q01DX009 (ip), vehicle: water) of the same molecule?
Its T/C is 98 % of control.

Which T/C [5] does the source give for CN(C)c1ccc(C2(c3ccc(N(C)C)cc3)NNC(=O)c3ccccc32)cc1 here?
Its T/C is 93 % of control.

And the T/C [6]?
The T/C was 90 % of control.

And the T/C [7]?
Its T/C is 86 % of control.

With C/C(=N\NC(N)=O)c1ccc(Cl)c(-n2cccc2)c1 as the molecule, how does the T/C [2] read?
Its T/C is 92 % of control.

And the T/C [3]?
Its T/C is 91 % of control.

And the T/C [4]?
Its T/C is 94 % of control.

Which results are given for COc1cc(CC2C(=O)OCC2Cc2cc(OC)c3c(c2)C(CO)C(c2ccc(O)c(OC)c2)O3)ccc1O (stereo unspecified)?
T/C (dose: 5.0 mg/kg/injection, schedule: Q01DX009 (ip), vehicle: saline with Tween-80): 102 % of control; T/C (dose: 10.0 mg/kg/injection, schedule: Q01DX009 (ip), vehicle: saline with Tween-80): 118 % of control; T/C (dose: 20.0 mg/kg/injection, schedule: Q01DX009 (ip), vehicle: saline with Tween-80): 101 % of control; T/C (dose: 40.0 mg/kg/injection, schedule: Q01DX009 (ip), vehicle: saline with Tween-80): 108 % of control

How did the T/C (dose: 3.12 mg/kg/injection, schedule: Q01DX009 (ip), vehicle: saline with Tween-80) turn out when O=C1C(CC=C(Cl)Cl)=C(OC2OC(CO)C(O)C(O)C2O)C(=O)c2ccccc21 (stereo unspecified) was run?
Its T/C is 103 % of control.

What about the T/C (dose: 6.25 mg/kg/injection, schedule: Q01DX009 (ip), vehicle: saline with Tween-80) of the same molecule?
Its T/C is 109 % of control.

What about the T/C (dose: 12.5 mg/kg/injection, schedule: Q01DX009 (ip), vehicle: saline with Tween-80) of the same molecule?
Its T/C is 111 % of control.

Which results are given for O/N=C/c1cccc[n+]1Cc1ccccc1?
T/C (dose: 1.56 mg/kg/injection, schedule: Q01DX009 (ip), vehicle: water): 102 % of control; T/C (dose: 3.13 mg/kg/injection, schedule: Q01DX009 (ip), vehicle: water): 101 % of control; T/C (dose: 6.25 mg/kg/injection, schedule: Q01DX009 (ip), vehicle: water): 102 % of control; T/C (dose: 12.5 mg/kg/injection, schedule: Q01DX009 (ip), vehicle: water): 102 % of control; T/C [9]: 107 % of control

Which results are given for COc1cc(CC2COC(=O)C2(O)Cc2ccc(O)c(OC)c2)ccc1O (stereo unspecified)?
T/C [5]: 98 % of control; T/C [6]: 95 % of control; T/C [7]: 100 % of control

For C[O+]=c1ccc2ccc(-c3ccccc3)sc-2c1, which T/C (dose: 60.0 mg/kg/injection, schedule: Q01DX005 (ip), vehicle: Klucel (hydroxypropylcellulose) (HPC)) is on record?
The T/C was 106 % of control.

And the T/C (dose: 120.0 mg/kg/injection, schedule: Q01DX005 (ip), vehicle: Klucel (hydroxypropylcellulose) (HPC))?
The T/C was 105 % of control.

Which results are given for CCCCc1c(O)c2c(=O)[nH]c(C)nc2oc1=O?
T/C (dose: 3.75 mg/kg/injection, schedule: Q01DX005 (ip), vehicle: Klucel (hydroxypropylcellulose) (HPC)): 96 % of control; T/C (dose: 7.5 mg/kg/injection, schedule: Q01DX005 (ip), vehicle: Klucel (hydroxypropylcellulose) (HPC)): 95 % of control; T/C (dose: 15.0 mg/kg/injection, schedule: Q01DX005 (ip), vehicle: Klucel (hydroxypropylcellulose) (HPC)): 92 % of control

What does the source list for N=c1c2ccccc2c2ccccc2n1O?
T/C (dose: 50.0 mg/kg/injection, schedule: Q01DX001 (ip), vehicle: saline sonified): 110 % of control; T/C (dose: 100.0 mg/kg/injection, schedule: Q01DX001 (ip), vehicle: saline sonified): 90 % of control; T/C (dose: 200.0 mg/kg/injection, schedule: Q01DX001 (ip), vehicle: saline sonified): 100 % of control

O=[N+]([O-])c1ccc(S(=O)(=O)/N=C/c2ccccc2)cc1 was tested. Which T/C (dose: 50.0 mg/kg/injection, schedule: Q01DX009 (ip), vehicle: saline with Tween-80) did it give?
Its T/C is 96 % of control.

What about the T/C (dose: 100.0 mg/kg/injection, schedule: Q01DX009 (ip), vehicle: saline with Tween-80) of the same molecule?
The T/C was 98 % of control.

What about the T/C (dose: 200.0 mg/kg/injection, schedule: Q01DX009 (ip), vehicle: saline with Tween-80) of the same molecule?
The T/C was 95 % of control.

With CN1C(=O)C2C(C1=O)[C@H]1c3ccccc3C=CN1[C@@H]2C(=O)c1ccccc1 (stereo partly specified) as the molecule, how does the T/C (dose: 60.0 mg/kg/injection, schedule: Q01DX005 (ip), vehicle: saline with Tween-80) read?
The T/C was 93 % of control.

And the T/C (dose: 120.0 mg/kg/injection, schedule: Q01DX005 (ip), vehicle: saline with Tween-80)?
Its T/C is 90 % of control.

What about the T/C (dose: 240.0 mg/kg/injection, schedule: Q01DX005 (ip), vehicle: saline with Tween-80) of the same molecule?
The T/C was 90 % of control.
